Key:
morningglory = assay: Test B pre/postemergence morningglory; assay type: in vivo, Ipomoea hederacea
Method in brief: (§1)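 Response is a visual 0-to-10 score relative to untreated plants, where 0 means no effect and 10 means complete control, taken twelve to sixteen days after application. Treatments went onto soil at planting and onto foliage of 1- to 4-leaf plants, using a surfactant-containing non-phytotoxic solvent.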

pigweed = assay: Test B pre/postemergence pigweed; assay type: in vivo, Amaranthus retroflexus
Method in brief: as §1

wild oat = assay: Test B pre/postemergence wild oat; assay type: in vivo, Avena fatua
Method in brief: as §1

[1] = Postemergence, Rate 62 g/ha, scale 0 to 10, 0 is no effect, 10 is complete control
[2] = Postemergence, Rate 250 g/ha, scale 0 to 10, 0 no effect, 10 complete control
[3] = Preemergence, Rate 31 g/ha, visual rating, scale 0 to 10 (0 no effect, 10 complete control)
[4] = Preemergence, Rate 62 g/ha, scale 0 to 10, 0 is no effect, 10 is complete control
[5] = Preemergence, Rate 125 g/ha, scale 0 to 10 (0 no effect, 10 complete control)
[6] = Preemergence, Rate 250 g/ha, scale of 0 to 10 where 0 is no effect and 10 is complete control
[7] = Rate 31 g/ha, Postemergence, scale 0 to 10
[8] = Rate 125 g/ha, Postemergence, scale 0 to 10, 0 no effect, 10 complete control
[9] = Postemergence, Rate 125 g/ha, scale of 0 to 10 where 0 is no effect and 10 is complete control
[10] = Preemergence, Rate 62 g/ha, scale of 0 to 10 where 0 is no effect and 10 is complete control
[11] = Preemergence, Rate 125 g/ha, scale of 0 to 10 where 0 is no effect and 10 is complete control
[12] = Preemergence, Rate 250 g/ha, scale 0 to 10 (0 no effect, 10 complete control)
[13] = Preemergence, Rate 500 g/ha, scale of 0 to 10 where 0 is no effect and 10 is complete control
[14] = Rate 500 g/ha, Postemergence, scale 0 to 10, 0 is no effect, 10 is complete control
[15] = Preemergence, Rate 500 g/ha, scale 0 (no effect) to 10 (complete control)
[16] = Rate 500 g/ha, Postemergence, scale 0 to 10, 0 no effect, 10 complete control
[17] = Rate 62 g/ha, Postemergence, scale of 0 to 10 where 0 is no effect and 10 is complete control
[18] = Rate 125 g/ha, Postemergence, scale 0 to 10
[19] = Rate 125 g/ha, Preemergence, scale of 0 to 10 where 0 is no effect and 10 is complete control

COc1ccc(-n2c(=O)on(C(=O)N(c3ccc(F)cc3F)C(C)C)c2=O)c(OC)c1 [Compound 32]
Morningglory plant response rating (morningglory; [1]): 6
Morningglory plant response rating (morningglory; [2]): 8
Morningglory plant response rating (morningglory; [3]): 0
Plant response rating, Morningglory (morningglory; [4]): 0
Plant response rating, Morningglory (morningglory; [5]): 0
Plant response rating, Morningglory (morningglory; [6]): 2
Morningglory plant response rating (morningglory; [7]): 6
Morningglory plant response rating (morningglory; [8]): 7
Redroot pigweed plant response rating (pigweed; [1]): 0
Redroot pigweed plant response rating (pigweed; [2]): 0
Redroot pigweed plant response rating (pigweed; [3]): 0
Plant response rating, Redroot pigweed (pigweed; [4]): 0
Plant response rating, Redroot pigweed (pigweed; [5]): 0
Plant response rating, Redroot pigweed (pigweed; [6]): 0
Redroot pigweed plant response rating (pigweed; [7]): 0
Redroot pigweed plant response rating (pigweed; [8]): 0
Wild oats plant response rating (wild oat; [1]): 0
Wild oats plant response rating (wild oat; [2]): 0
Wild oats plant response rating (wild oat; [3]): 0
Plant response rating, Wild oats (wild oat; [5]): 0
Plant response rating, Wild oats (wild oat; [6]): 2
Wild oats plant response rating (wild oat; [8]): 0

CC(C)N(C(=O)n1oc(=O)n(CCF)c1=O)c1ccc(Cl)cc1 [Compound 668]
Plant response rating, Morningglory (morningglory; [1]): 1
Morningglory plant response rating (morningglory; [9]): 3
Morningglory plant response rating (morningglory; Postemergence, Rate 250 g/ha, scale of 0 to 10, 0 is no effect, 10 is complete control): 4
Morningglory plant response rating (morningglory; [10]): 0
Morningglory plant response rating (morningglory; [11]): 0
Plant response rating, Morningglory (morningglory; [12]): 0
Plant response rating, Morningglory (morningglory; [13]): 5
Morningglory plant response rating (morningglory; [14]): 4
Plant response rating, Redroot pigweed (pigweed; [1]): 3
Redroot pigweed plant response rating (pigweed; [9]): 5
Redroot pigweed plant response rating (pigweed; [10]): 0
Redroot pigweed plant response rating (pigweed; [11]): 7
Plant response rating, Redroot pigweed (pigweed; [12]): 10
Plant response rating, Redroot pigweed (pigweed; [13]): 10
Redroot pigweed plant response rating (pigweed; [14]): 7
Plant response rating, Wild oats (wild oat; [1]): 0
Wild oats plant response rating (wild oat; [9]): 0
Wild oats plant response rating (wild oat; [10]): 2
Wild oats plant response rating (wild oat; [11]): 7
Plant response rating, Wild oats (wild oat; [12]): 8
Plant response rating, Wild oats (wild oat; [13]): 9
Wild oats plant response rating (wild oat; [14]): 0

Cc1ccccc1-n1c(=O)on(C(=O)N(c2ccc(F)c(F)c2)C(C)C)c1=O [Compound 48]
Morningglory plant response rating (morningglory; [1]): 0
Morningglory plant response rating (morningglory; [2]): 0
Plant response rating, Morningglory (morningglory; [4]): 0
Plant response rating, Morningglory (morningglory; [5]): 0
Plant response rating, Morningglory (morningglory; [6]): 0
Morningglory plant response rating (morningglory; [15]): 0
Morningglory plant response rating (morningglory; [8]): 0
Morningglory plant response rating (morningglory; [16]): 1
Redroot pigweed plant response rating (pigweed; [1]): 0
Redroot pigweed plant response rating (pigweed; [2]): 0
Plant response rating, Redroot pigweed (pigweed; [4]): 0
Plant response rating, Redroot pigweed (pigweed; [5]): 0
Plant response rating, Redroot pigweed (pigweed; [6]): 0
Redroot pigweed plant response rating (pigweed; [15]): 0
Redroot pigweed plant response rating (pigweed; [8]): 0
Redroot pigweed plant response rating (pigweed; [16]): 0
Wild oats plant response rating (wild oat; [1]): 0
Wild oats plant response rating (wild oat; [2]): 0
Plant response rating, Wild oats (wild oat; [5]): 0
Plant response rating, Wild oats (wild oat; [6]): 2
Wild oats plant response rating (wild oat; [15]): 2
Wild oats plant response rating (wild oat; [8]): 0
Wild oats plant response rating (wild oat; [16]): 0

CCCCc1ccc(N(C(=O)n2oc(=O)n(-c3ccccc3C)c2=O)C(C)C)cc1 [Compound 229]
Morningglory plant response rating (morningglory; [10]): 0
Morningglory plant response rating (morningglory; [6]): 0
Plant response rating, Morningglory (morningglory; [13]): 0
Morningglory plant response rating (morningglory; [17]): 0
Morningglory plant response rating (morningglory; [18]): 0
Morningglory plant response rating (morningglory; [19]): 0
Plant response rating (0 to 10; 0 is no effect, 10 is complete control), Morningglory (morningglory; Rate 250 g/ha, Postemergence): 0
Morningglory plant response rating (morningglory; [16]): 0
Redroot pigweed plant response rating (pigweed; [10]): 0
Redroot pigweed plant response rating (pigweed; [6]): 0
Plant response rating, Redroot pigweed (pigweed; [13]): 0
Redroot pigweed plant response rating (pigweed; [17]): 0
Redroot pigweed plant response rating (pigweed; [18]): 0
Redroot pigweed plant response rating (pigweed; [19]): 0
Plant response rating (0 to 10; 0 is no effect, 10 is complete control), Redroot pigweed (pigweed; Rate 250 g/ha, Postemergence): 0
Redroot pigweed plant response rating (pigweed; [16]): 0
Wild oats plant response rating (wild oat; [10]): 0
Wild oats plant response rating (wild oat; [6]): 0
Plant response rating, Wild oats (wild oat; [13]): 0
Wild oats plant response rating (wild oat; [17]): 0
Wild oats plant response rating (wild oat; [18]): 0
Wild oats plant response rating (wild oat; [19]): 0
Plant response rating (0 to 10; 0 is no effect, 10 is complete control), Wild oats (wild oat; Rate 250 g/ha, Postemergence): 0
Wild oats plant response rating (wild oat; [16]): 0

Reference: patent publication US6737383B1, “Herbicidal oxadiazolidines” (priority 1999, dated 2004)
